In publication PMC11876601 (Molecular Systems Biology, 2025):

What was measured:
[1] = molecular target: all target kinases identified with the Kinobeads technology; assay: Kinobeads competition pulldown in AsPC-1 lysate, all kinases; format: binding, human; conditions: all targets other than ATR and ACVR2; read-out: KDapp of all other targets
Experimental: (§1) This was followed by incubation with Kinobeads ε (17.5 µl of settled beads) for 30 min at 4 °C to enrich kinases. […] Enriched proteins were reduced with 50 mM DTT in 8 M urea, 40 mM Tris-HCl, pH 7.4 for 30 min at room temperature, and alkylated with 55 mM chloroacetamide. After reducing the urea concentration to 1–2 M, proteins were digested with trypsin at 37 °C for 16 h. Subsequently, eluted peptides were desalted using SepPak tC18 µElution plates (Waters), freeze-dried by vacuum centrifugation, and stored at −20 °C.
(§2) For LC-MS/MS, dried peptides were reconstituted in 0.1% formic acid and analyzed on a Dionex Ultimate3000 nano HPLC (Thermo Scientific) coupled to an Orbitrap Fusion Tribrid mass spectrometer (Thermo Scientific), which was run in data-dependent mode. […]
(§3) Oxidized methionine and N-terminal acetylation were set as variable modification, and cysteine carbamidomethylation was set as fixed modification. Label-free quantification (LFQ) and match-between-runs were enabled. […]
(§4) Proteins were filtered by potential contaminants, reversed hits and proteins identified only by site. Residual binding of proteins was calculated from LFQ intensities as the ratio between drug doses and vehicle. […] Only kinases quantified with at least 4 unique peptides in the vehicle experiment were considered. […]

[2] = tested on: PRKAA2; design: method as in Reinecke et al. (2023); conditions: PRKAA2, 5 cell line mix lysate, Kinobeads ε, ref Reinecke et al. (2023), cited from earlier work
[3] = tested on: SIK3; design: method as in Reinecke et al. (2023); conditions: SIK3, 5 cell line mix lysate, Kinobeads ε, ref Reinecke et al. (2023), cited from earlier work
[4] = molecular target: INCENP; design: method as in Reinecke et al. (2023); conditions: 5 cell line mix lysate, Kinobeads ε, ref Reinecke et al. (2023), cited from earlier work
[5] = molecular target: HCK; design: method as in Reinecke et al. (2023); conditions: 5 cell line mix lysate, Kinobeads ε, ref Reinecke et al. (2023), cited from earlier work
[6] = molecular target: AXL; design: method as in Reinecke et al. (2023); conditions: 5 cell line mix lysate, Kinobeads ε, ref Reinecke et al. (2023), cited from earlier work
[7] = tested on: IKBKE; design: method as in Klaeger et al. (2017); conditions: lysate 4 cell line mix (Colo205, K-562, MV-4-11, and SK-N-BE(2)), Kinobeads y, ref Klaeger et al. (2017); cited from earlier work
[8] = tested on: PRKX; design: method as in Klaeger et al. (2017); conditions: lysate 4 cell line mix (Colo205, K-562, MV-4-11, and SK-N-BE(2)), Kinobeads y, ref Klaeger et al. (2017); cited from earlier work
[9] = tested on: ACVR1B; design: method as in Klaeger et al. (2017); conditions: lysate 4 cell line mix (Colo205, K-562, MV-4-11, and SK-N-BE(2)), Kinobeads y, ref Klaeger et al. (2017); cited from earlier work
[10] = molecular target: PIK3C2A (Homo sapiens, UniProt O00443); assay: biochemical
Experimental: as §1, §2, §3, §4

Sequence of PIK3C2A (O00443 whole entry): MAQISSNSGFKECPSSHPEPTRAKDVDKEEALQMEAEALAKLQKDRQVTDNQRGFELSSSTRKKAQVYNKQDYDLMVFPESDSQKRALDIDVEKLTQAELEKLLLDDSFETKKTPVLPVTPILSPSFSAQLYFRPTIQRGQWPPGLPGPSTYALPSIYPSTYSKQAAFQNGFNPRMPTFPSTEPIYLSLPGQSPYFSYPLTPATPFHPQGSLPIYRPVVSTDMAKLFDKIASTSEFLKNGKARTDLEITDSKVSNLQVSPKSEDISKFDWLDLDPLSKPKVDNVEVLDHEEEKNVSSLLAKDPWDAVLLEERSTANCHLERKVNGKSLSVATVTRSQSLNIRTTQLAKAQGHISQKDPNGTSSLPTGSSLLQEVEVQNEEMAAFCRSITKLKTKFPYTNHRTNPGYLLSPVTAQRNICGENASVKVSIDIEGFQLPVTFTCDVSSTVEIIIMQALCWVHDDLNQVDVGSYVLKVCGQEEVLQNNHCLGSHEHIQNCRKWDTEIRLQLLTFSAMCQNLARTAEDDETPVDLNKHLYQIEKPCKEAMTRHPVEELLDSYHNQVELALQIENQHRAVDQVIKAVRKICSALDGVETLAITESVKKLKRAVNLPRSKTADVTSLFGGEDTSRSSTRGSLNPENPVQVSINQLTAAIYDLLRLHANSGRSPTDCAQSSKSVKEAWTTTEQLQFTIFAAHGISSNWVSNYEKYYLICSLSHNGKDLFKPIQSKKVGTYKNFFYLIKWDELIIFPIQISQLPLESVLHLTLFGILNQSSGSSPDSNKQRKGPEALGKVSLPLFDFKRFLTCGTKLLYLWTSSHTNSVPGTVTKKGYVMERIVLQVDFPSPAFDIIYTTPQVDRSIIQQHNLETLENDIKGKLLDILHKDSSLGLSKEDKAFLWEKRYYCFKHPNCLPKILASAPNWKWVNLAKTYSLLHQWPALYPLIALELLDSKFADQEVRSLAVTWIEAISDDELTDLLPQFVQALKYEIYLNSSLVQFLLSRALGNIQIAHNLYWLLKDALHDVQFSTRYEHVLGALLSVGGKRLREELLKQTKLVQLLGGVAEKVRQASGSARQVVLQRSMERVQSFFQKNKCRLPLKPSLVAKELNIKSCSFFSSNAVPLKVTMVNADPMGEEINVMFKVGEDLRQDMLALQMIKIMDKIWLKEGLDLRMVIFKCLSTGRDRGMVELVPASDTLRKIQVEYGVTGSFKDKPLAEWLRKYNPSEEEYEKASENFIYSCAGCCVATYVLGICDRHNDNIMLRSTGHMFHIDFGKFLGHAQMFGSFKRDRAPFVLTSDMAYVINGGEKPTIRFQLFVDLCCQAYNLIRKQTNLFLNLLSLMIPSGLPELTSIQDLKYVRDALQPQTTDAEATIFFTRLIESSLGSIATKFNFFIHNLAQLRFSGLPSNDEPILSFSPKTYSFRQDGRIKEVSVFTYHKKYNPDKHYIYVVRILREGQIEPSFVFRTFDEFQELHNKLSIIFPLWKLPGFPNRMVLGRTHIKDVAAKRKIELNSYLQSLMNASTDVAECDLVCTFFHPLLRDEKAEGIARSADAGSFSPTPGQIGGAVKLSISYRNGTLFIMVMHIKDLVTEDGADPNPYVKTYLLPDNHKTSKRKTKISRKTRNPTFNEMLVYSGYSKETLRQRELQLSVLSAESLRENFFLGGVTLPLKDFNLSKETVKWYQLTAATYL

In the case of `CNCc1ccc(-c2cc(-c3nc(-c4ccc(S(=O)(=O)C(C)C)cc4)cnc3N)on2)cc1` [Berzosertib], the Kd [1] is reported as greater than 0.01 µM.
For `COc1cc(N2CCC(N3CCN(C)CC3)CC2)ccc1Nc1ncc(Cl)c(Nc2ccccc2P(C)(C)=O)n1` [Brigatinib], the EC50 [2] is listed as 1.16 µM, the pKDapp [2] is listed as 6.28 and the Kd ([2]; read-out: KDapp) is listed as 0.527 µM. The EC50 [3] was 1.77 µM, the pKDapp [3] was 5.84 and the Kd ([3]; read-out: KDapp) was 1.45 µM. The Kd ([4]; read-out: KDapp) was 1.03 µM, the EC50 [4] was 1.16 µM and the pKDapp [4] was 5.99. The Kd ([5]; read-out: KDapp) was 0.776 µM, the EC50 [5] was 1.5 µM and the pKDapp [5] was 6.11. For the same molecule, the Kd ([6]; read-out: KDapp) was 0.635 µM, the EC50 [6] was 0.635 µM and the pKDapp [6] was 6.20.
In the case of `C[C@]12O[C@H](C[C@]1(O)CO)n1c3ccccc3c3c4c(c5c6ccccc6n2c5c31)CNC4=O` [Lestaurtinib], the EC50 [7] is given as 1.03 µM, the EC50 [8] is given as […] and the EC50 [9] is given as […].
With `C[C@@H]1COCCN1c1cc(-c2ccnn2C)c2ccnc(-c3ccn[nH]3)c2n1` [Elimusertib] the EC50 [10] was 0.936 µM and the Kd ([10]; KDapp, AsPC-1 lysate) was 0.426 µM.
